Measurements taken from article PMC10483525, “Synthesis, Structural Investigations, DNA/BSA Interactions, Molecular Docking Studies, and Anticancer Activity of a New 1,4-Disubstituted 1,2,3-Triazole Derivative” (ACS Omega, 2023).

Assays:
[1] = target: T1, BSA (bovine serum albumin) (Bos taurus, UniProt P02769); test: BSA UV–vis absorption; type: binding; conditions: BSA 10 μM + compound 10 μM
T1 construct: purchased Merck/Sigma
Description: The BSA–compound interactions are studied by comparing the UV–vis spectra (200–400 nm) of BSA (10 μM) alone and a mixture of [BSA (10 μM) + compound 3 (10 μM)] at room temperature in 10 mM Tris-HCl buffer with a pH of 7.4.[85]

EB + CT-DNA adduct = test: EB displacement (competitive fluorescence emission quenching); type: binding; conditions: EB 5 μM + CT-DNA 25 μM
Description: The competitive emission quenching experiment was carried out using a well-known intercalating agent and fluorescent probe for DNA, ethidium bromide (EtBr).[83] The compound in varying concentrations (0–150) was added to the [EB (5 μM) + CT-DNA (25 μM)] adduct. The excitation wavelength was fixed to 510 nm, and the emission spectra were recorded (λem = 500–700 nm). The quenching efficiency of the compound was analyzed using the Stern–Volmer and Scatchard equations, and the Stern–Volmer (quenching) constant, Ksv, the bimolecular quenching rate constant, kq, binding constant, Kbin, and the number of binding sites per nucleotide, n, were calculated.[84]
Absorption spectral studies […]
sufficiently free of protein. The DNA concentration per nucleotide was determined by […]
sample solutions to eliminate the absorbance of CT-DNA. […]
mixture was allowed to incubate for 5 minutes before the absorption spectrum was recorded.
The intrinsic binding constant Kb of compound was calculated by using Wolfe-Shimmer […]
Fluorescence spectral studies
The fluorescence quenching experiments were performed for additional support for binding of […]
EB+CT-DNA solution. The fluorescence spectra of 200 μL/well solutions in a 96-well plate
were recorded with 510 nm excitation and the emission spectra of constant [EB+CT-DNA] with
varying the compound concentration were recorded (λ em =500–700). […]

Caco-2 = test: MTT assay; type: cell-based, human; conditions: for IC50: Homo sapiens
Description: Human cancer cell lines (MDA-MB-231, LNCaP, Caco-2) and a human healthy cell line (HEK-293) were obtained from the European Collection of Cell Cultures. The cells were incubated in a humidified incubator (37 °C, 5% CO2) and cultured under standard conditions in Dulbecco’s modified Eagle medium (DMEM), 10% heat-inactivated fetal bovine serum, 100 U mL^–1 penicillin, 100 U mL^–1 streptomycin, and 4 mM L-glutamine. […] A cell culture medium was used to make further dilutions, while keeping the equivalent of DMF below 0.5% of the total volume.[94] […]
7. Cell Viability Inhibition Assay
MDA-MB-231, LNCaP, Caco-2 and HEK-293 cells (5x10^3 per well) seeded in 96-well plates to assess cell viability by the 3-[4,5-dimethylthiazol-2-yl]-2,5-diphenyltetrazolium bromide (MTT) assay for 24 h at 37°C. Then cells were treated with compound 3 at different concentrations (3-100 µM) at 100μl/well. […]
and etoposid was used as positive controls under identical conditions. After 24, 48 and 72 h incubation, 5 mg/ml MTT solution (20 μl/well) was added and cultured for another 4 h. Then, the supernatant was discarded and dimethyl sulfoxide was added (100 μl/well). The absorbance (A) was measured spectrophotometrically at 540 nm by a Microplate Reader (SpectraMax i3x).
A graph was plotted between the concentrations of the extract versus the percent viability. The […]
calculated from graph. All assays were performed in three replicates per concentration level. 11 […]

Caco-2 cells = test: Annexin V/PI double-staining apoptosis assay (flow cytometry); type: cell-based, human; conditions: 48 h
Description: calculated from graph. All assays were performed in three replicates per concentration level. 11
8. Annexin-V/PI Double-Staining Assay
Caco-2 (5x10^5 per well) were seeded in 6-well culture plates in medium and incubated for 24 h at 37°C. Then cells were either untreated or treated with the compound 3 (7.5, 15, 30 μM) for additional 48 h. The cells were harvested and resuspended in 400 μl of 1× binding buffer containing Annexin V-FITC (5 μl) and PI (5 μl), and cells were incubated for 15 min at RT (25°C) in the dark. The results were evaluated immediately through flow cytometry (BD Biosciences, San Jose, CA, USA) within 1 h using Annexin V-FITC staining kit (BD […]

T1 sequence (P02769 25-607): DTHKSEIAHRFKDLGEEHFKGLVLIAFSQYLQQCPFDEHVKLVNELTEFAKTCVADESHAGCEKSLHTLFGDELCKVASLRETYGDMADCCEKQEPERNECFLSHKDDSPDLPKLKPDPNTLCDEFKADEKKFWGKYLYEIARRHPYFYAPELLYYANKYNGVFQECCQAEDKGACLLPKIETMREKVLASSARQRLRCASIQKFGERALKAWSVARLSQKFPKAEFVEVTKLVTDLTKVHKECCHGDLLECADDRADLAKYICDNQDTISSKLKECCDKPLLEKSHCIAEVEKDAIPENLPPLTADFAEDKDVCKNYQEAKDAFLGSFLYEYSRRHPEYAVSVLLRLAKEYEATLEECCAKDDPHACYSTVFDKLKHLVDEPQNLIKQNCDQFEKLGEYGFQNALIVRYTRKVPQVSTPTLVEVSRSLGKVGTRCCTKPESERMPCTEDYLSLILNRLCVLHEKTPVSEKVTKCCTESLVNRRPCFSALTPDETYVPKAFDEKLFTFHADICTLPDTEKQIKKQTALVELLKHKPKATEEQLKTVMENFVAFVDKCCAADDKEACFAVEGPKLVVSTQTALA

## O=Cc1ccc(OCc2cn(-c3ccc(Cl)c(Cl)c3)nn2)cc1O [Compound 3, 4-((1-(3,4-Dichlorophenyl)-1H-1,2,3-triazol-4-yl)methoxy)-2-hydroxybenzaldehyde]
[1]
  Δλ (blue shift of BSA absorption): ~1 nm
EB + CT-DNA adduct; compound 0–150 μM, λex 510 nm, emission 602 nm
  Ksv (Stern–Volmer quenching constant): 4.13 × 10^3 M^–1
EB + CT-DNA adduct; Scatchard equation
  Kbin (binding constant): 3.45 × 10^4 M^–1
Caco-2; 48 h, SI = IC50 on normal cells/IC50 on cancer cells
  SI HEK-293/Caco-2: 1.46
Caco-2; Caco-2 cells
  SI, times higher than cisplatin: 10 times
Caco-2; Caco-2, 24 h
  IC50: 31.7 ± 0.34 µM
Caco-2; Caco-2, 48 h
  IC50: 16.6 ± 0.27 µM
Caco-2; Caco-2, 72 h
  IC50: 11.77 ± 0.01 µM
Caco-2 cells; Caco-2, 7.5 μM
  percentage of apoptosis (early + late): 46.09%
Caco-2 cells; Caco-2, 15 μM
  percentage of apoptosis (early + late): 57.77%
Caco-2 cells; Caco-2, 30 μM
  percentage of apoptosis (early + late): 70.25%
